# Source: patent US20230250127A1, “MODIFIED mRNA 5'-CAP ANALOGS” (Nanjing GeneLeap Biotechnology Co., Ltd., priority 2021, published 2023)
# Entries after “also recorded” stand apart in the source; their conditions may differ.
# How the values were obtained:
# C57BL/6 mice [1] = experiment: Ex vivo Luciferase assay of tissue homogenates after mRNA-LNP injection; assay type: in vivo; settings: Experiment 1, low and high dose regimens, different time points; vs Cleancap AG-mRNA
# Method: (§1) Female C57BL/6 mice 7-8 weeks of age were randomly allocated to experimental groups, 30 mice per group. For each group, 6 experimental conditions were set up: 2 mRNA doses (0.01, 0.1 mg/kg) and 3 time points 6 h, 24 h, 48 h (5 mice/dose/time point). A single intramuscular injection of mRNA-loaded LNPs was performed (injection volume 40 µl). At 6 h, 24 h and 48 h post-injection, 5 animals/dose in each group were taken for in vivo tissue and organ imaging. The animals were shaved and intraperitoneally injected with 200 µL of a d-luciferin solution (15 mg/mL in DPBS) D-luciferin and anesthetized 8 min later using isoflurane (5% induction, 2% maintenance in pure oxygen). The emitted light was measured by in vivo imaging system (IVIS) exactly 12 min after d-luciferin injection. Whole body supine and lateral position imaging was carried out.
# (§2) After Whole body imaging, the animals were euthanized, and the leg muscles (injection site) were harvested in Experiment 1; muscles and livers were harvested in Experiment 2. The emitted light by the tissues/organs was measured by IVIS in less than 25 min after d-luciferin injection.
# Next, tissue lysates were prepared by homogenization and Glo Lysis Buffer 1X (Abcam cat # ab6789) treatment. The lysates were centrifuged at 4° C. for 15 min at 10000 g, and the supernatants were used for total protein quantification and luciferase activity assessment. […]
# HeLa cells = experiment: Fluc mRNA carrying 5′-cap analogs, translation in HeLa cells (luciferase luminescence); assay type: cell-based; settings: for Fluc expression in vitro, summary of FIGS. 7-9: HeLa cells, compared to the control Cleancap AG; for expression levels of Fluc protein by mRNAs containing different 5′caps: HeLa
# Method: The novel 5′ -caps synthesized were incorporated into Firefly luciferase (Fluc) mRNA using pGL-T7-AG-nUTR002-Fluc-HBB3UTR-30+70A-BpiI (Kana-AGG-BpiI Plasmid Size: 4856bp). Then, the dose responses of the new cap analogs were compared to commercially available Cap analog from Trilink m7G(5′)ppp(5′)(2′OMeA)pG (cat no. N-7113).
# Briefly, 1 µg GLuc (AGG plasmid) template per reaction was transcribed in vitro using a High Yield T7 mRNA synthesis kit (NEB, E2040S). Cap analogs were added by co-transcription. Transcription was carried out for 2 hours, followed by DNase I treatment for 15 min. Ratio of NTP to Cap analogs, 10:4 (10 mM NTP each, 4 mM cap).
# Expected mRNA length: 2008 nt. Then the small scale IVT mRNAs were purified using DNA Selection Magnetic beads (Yeasen,12601ES56), Large scale IVT mRNAs were purified using POROS™ Oligo (dT)25 (Thermofisher, A47383) and Ultrafiltration use Amicon® Ultra-15(Merk, UFC910024), the RNA was quantitated using Nanodrop, and 500 ng of each mRNA was run on agarose E-Gel, mRNAs were run on a 2100 bioanalyzer or CE (PA800) for checking mRNA integrity, HPLC for Purity, DNAzyme-PAGE for Capping efficiency and polyA quality. Large scale mRNA were subjected to more QC (Capping/polyA tail-LC-MS, Template DNA residual-qPCR, dsRNA-Elisa, pH).
# Novel 5 ′-cap structures that were synthesized were incorporated into Firefly luciferase (Fluc) mRNA via IVT as described above and then assessed for translation efficacy in HeLa cells following transfection. Briefly, HeLa cells were seeded in a 96-well plate (20000cells/0.1 ml/well). The next day (approx. ∼80-90% confluent), the cells were transfected with 25, 50, or 100 ng/well of Fluc-mRNA samples using 2 µl/ml of Lipofectamine MessengerMax (Thermo Scientific, cat#LMRNA015) or in-house formulated lipid-nanoparticles (LNPs). The cells were incubated for another 24 h. To monitor the functional (translation) activity of Fluc mRNAs into which different 5′cap analogs have been incorporated, the Fluc protein expression was evaluated by adding 60 µl Bio Lite Luciferase Assay System (Vazyme, cat # DD1201-02) into each well, incubating the plates at room temperature for 10 min, and measuring the luminescence using a multimode plate reader luminometer. All wells were assayed in triplicates. Statistical analysis was performed using two-way ANOVA followed by uncorrected Fisher’s LSD.
# C57BL/6 mice [2] = experiment: In vivo Fluc expression of capped mRNA-LNPs by in vivo imaging system (IVIS); settings: for in vivo expression levels of Fluc protein (in vivo imaging system): vs Cleancap AG-mRNA; for expression levels of Fluc protein in liver and muscle (injection site) tissues: Experiment 2, by in vivo imaging system and by ex vivo Luciferase assay, vs Cleancap AG (FIG. 13); for Fluc expression in vivo, summary of FIGS. 10-13: mice, intramuscular mRNA-LNPs, compared to Cleancap AG
# Method: as §1, §2
# C3 tumors = experiment: C3 Tumor Model, capped HPV E6/E7 mRNA; assay type: in vivo; settings: GL2288 mRNA, mid dose (0.05 mg/Kg), intramuscular Day 0; vs CC
# Method: As soon as the C3 tumors reached 100 mm^3, our HPV E6/E7 mRNA sequence (GL2281) (wherein the sequence encoding HPV E6-E7 is SEQ ID NO:2), capped with either CleanCap, GL-Cap5 or GL-Cap1, was administered intramuscularly at 10 µg per dose, with the first dose on Day 0 and second dose on Day 10. The PBS and 10 µg of CleanCap-capped Luciferase mRNA (FF luciferase) were used for comparison.
# As soon as the C3 tumors reached 100 mm3, our HPV E6/E7 mRNA sequence (GL2288) (wherein the sequence encoding HPV E6-E7 is SEQ ID NO:1), capped with either CleanCap (CC), or GL-Cap7, was administered intramuscularly at different doses at Day 0. The CleanCap-capped Luciferase mRNA (FF Luciferase) was used for comparison.
# [3] = Experiment 2, single intramuscular dose 0.1 mg/kg, 6 h after injection
Compound,expression levels of Fluc protein in muscle tissue homogenates (ex vivo Luciferase assay) (C57BL/6 mice [1]),"Fluc expression in vitro, summary of FIGS. 7-9 (HeLa cells)","expression levels of Fluc protein by mRNAs containing different 5′caps (HeLa cells; 24 h, in-house LNP formulation, high and medium doses (FIG. 7B))","expression levels of Fluc protein by mRNAs containing different 5′caps (HeLa cells; 24 h post-transfection, Lipofectamine MessengerMax, different tested doses, vs Cleancap AG (FIG. 7A))","in vivo expression levels of Fluc protein (in vivo imaging system) (C57BL/6 mice [2]; Experiment 1, single intramuscular dose of mRNA-LNPs, low and high dose regimens, 6 h, 24 h, 48 h)",expression levels of Fluc protein in liver and muscle (injection site) tissues (C57BL/6 mice [2]),in vivo expression levels of Fluc protein (in vivo imaging system) (C57BL/6 mice [2]; [3]),"Fluc expression in vivo, summary of FIGS. 10-13 (C57BL/6 mice [2])","expression levels of Fluc protein by mRNAs containing different 5′caps (HeLa cells; 24 h, in-house LNP formulation, low doses (FIG. 7B))",anti-tumor efficacy (C3 tumors)
"C[n+]1cn([C@@H]2O[C@H](COP(=O)([O-])OP(=O)(O)OP(=O)(O)OC[C@]34COC(C3OP(=O)(O)OC[C@H]3O[C@@H](n5cnc6c(=O)[nH]c(N)nc65)C(O)C3O)[C@H](n3cnc5c(N)ncnc53)O4)C(O)C2O)c2nc(N)[nH]c(=O)c21 (some centres unmarked) [GL-Cap5, 7mGppp(locked)ApG]",higher than with Cleancap AG-mRNA,stronger expression,significantly higher than all the other tested caps,significantly higher expression level at different tested doses,significantly higher Fluc expression levels; also recorded: the strongest expression level among the tested caps,comparable,significantly higher Fluc expression levels,significantly stronger expression,,
"COCCOC1C(O)[C@@H](COP(=O)([O-])OP(=O)(O)OP(=O)(O)OC[C@]23COC(C2OP(=O)(O)OC[C@H]2O[C@@H](n4cnc5c(=O)[nH]c(N)nc54)C(O)C2O)[C@H](n2cnc4c(N)ncnc42)O3)O[C@H]1n1c[n+](C)c2c(=O)[nH]c(N)nc21 (some centres unmarked) [GL-Cap8, 7m-2-′MOE-Gppp(locked)ApG]",,,,,,better; also recorded: highest expression levels,,,stronger expression than Cleancap AG (Trilink),
"C[n+]1cn([C@@H]2O[C@H](COP(=O)([O-])OP(=O)(O)OP(=O)(O)OC[C@]34COC(C3OP(=O)(O)OC[C@H]3O[C@@H](n5cnc6c(=O)[nH]c(N)nc65)C(O)C3O)[C@H](n3cnc5c(N)ncnc53)O4)C(O)C2F)c2nc(N)[nH]c(=O)c21 (some centres unmarked) [GL-Cap7, 7m-2′F-Gppp(locked)ApG]",,stronger expression,,,,better; also recorded: highest expression levels,significantly higher Fluc expression levels,significantly stronger expression,,higher anti-tumor efficacy than CC
"C[n+]1cn([C@@H]2O[C@H](COP(=O)([O-])OP(=O)(O)OP(=O)(O)OC[C@]34COC(C3OP(=O)(O)OC[C@]35COC(C3OP(=O)(O)OC[C@H]3O[C@@H](n6cnc7c(=O)[nH]c(N)nc76)C(O)C3O)[C@H](n3cnc6c(N)ncnc63)O5)[C@H](n3cnc5c(N)ncnc53)O4)C(O)C2O)c2nc(N)[nH]c(=O)c21 (some centres unmarked) [GL-Cap1, 7mGppp(locked)Ap(locked)ApG]",,,,,,better,"slightly higher than in the Cleancap AG group, but without statistical significance",,,
